Measurements taken from patent US7534769B2, “Compositions and methods for enhancing delivery of therapeutic agents to cells” (Canji, Inc., priority 1996, dated 2009).
“Also recorded” adds a separate entry of the source.

Key:
[1] = test system: bladder epithelium; format: in vivo, rat
Protocol: Nine female buffalo rats (Harlan Sprague Dawley) were anesthetized with isoflurane and received a single intravesical administration of a human recombinant adenovirus encoding the lacZ gene (rAd-βgal). […] The administered material was retained in the bladder for 45 minutes. The bladder were then flushed with PBS, and the animals were permitted to recover from the procedure. Two days after administration, rats were sacrificed, bladders were harvested, fixed, and whole organs were stained with an Xgal (5-Bromo-4-chloro-3-indolyl-β-D-galactoside) solution to evaluate reporter gene transfer. Xgal-stained tissues were then paraffin embedded, sectioned, and counter stained with hematoxylin and eosin.
After a 45 minute incubation, the bladders were flushed with PBS, and animals were permitted to recover from anesthesia.

[2] = test system: bladder, kidney and liver homogenates; test: ACNRB transgene expression by RT-PCR after intravesical administration; format: in vivo, mouse
Protocol: After the virus was retained in the bladder for 45 minutes, the animals were permitted to recover and void. […] Following amplification (30 cycles) RT-PCR products were separated on a 10% polyacrylamide gel, stained with ethidium bromide, and photographed. […] Untreated samples and bladder samples without the reverse transcriptase (RT) provided controls for contaminating DNA.
The instilled material was retained in the bladder for approximately 45 minutes, and animals were permitted to recover from the procedure. Mice were sacrificed 1, 2, 3, 4, 5, 6, 7, and 14 days after administration (N=4/time) for analysis. Bladders, livers, and kidneys were harvested and snap frozen in liquid nitrogen for subsequent analysis.
After the virus was retained in the bladder for 45 minutes, the animals were permitted to recover. […] Transgene expression was determined using RT-PCR. Tissues were rinsed in RNAse free water, homogenized, digested in Tri-Reagent (Molecular Research Center), and total cellular RNA extracted. […] RT-PCR was performed in the Perkin Elmer 9600 GeneAmp PCR System. Cycling conditions were 10 min at 65° C., 8 min at 50° C., 5 min at 95° C. 32 cycles of PCR were performed, each cycle consisting of 30 sec at 94° C., 30 sec at 58° C., and 30 sec at 72° C. The 32nd cycle included a 10 min elongation step at 72° C. to ensure full extension of incomplete DNA fragments.

[3] = test system: bladder tissue; test: Cystitis evaluation of formulations in mice, bladder histopathology; details: 80 μL intravesical, 7-day interval; 7 mM Big CHAP, 0.05 mM TRITON X-100 or 22% ethanol
Protocol: The formulations were administered intravesically in a volume of 80 μL, and animals were observed over a 7-day interval. After sacrifice, bladders were paraffin-embedded, sectioned, and stained with hematoxylin and eosin for pathologic evaluation.

[4] = test system: bladder epithelium; test: rAd-βgal gene transfer to bladder epithelium in detergent formulations, Xgal staining score and gross pathology; details: detergents at their critical micellization concentration
Protocol: rAd-βgal was formulated in different detergents at their critical micellization concentration to evaluate efficiency of gene transfer to the bladder epithelium. Female rats (about 200 g b/w, Harlan Sprague Dawley) were anesthetized with isoflurane and received a single intravesical administration of rAd-βgal (1×10^11 PN/ml) in different detergent formulations (see Table I). Before instillation, bladders were flushed with PBS and then emptied. rAd-βgal was then instilled in a volume of 0.5 ml. The instilled solution was retained in the bladder for 45 minutes. The bladders were then flushed with PBS, and the animals were permitted to recover from the procedure. 48 hours after administration, the rats were sacrificed, the bladders harvested, and fixed in formalin. After fixation, the bladders were opened longitudinally so that the urothelium was exposed to the chromogen (Xgal), that is converted to a blue color, if reporter gene (β-galactosidase) expression is present. The luminal epithelial surface of the whole bladder was photographed an blue staining scored: + (minimal staining), ++ (moderate staining), +++ intense staining covering the whole bladder epithelial surface.
Briefly, in anaesthetized female rats rAd-βgal (1×10^11 PN/ml) was administered into the bladder via an intravesical catheter. rAd-βgal was formulated in different concentrations of Big CHAP (CALBIOCHEM®). A volume of 0.5 ml was injected and remained instilled in the bladder for 45 minutes. The animals were sacrificed 48 hours later, the bladder fixed in 4% formalin/glutaraldehyde, opened longitudinally, and the β-galactosidase enzyme activity measured using Xgal substrate. The intensity of blue staining correlates with the βgal-transgene expression.
Effects of higher recombinant adenovirus concentrations were also tested. Briefly, in anaesthetized female rats different concentrations of rAd-βgal, formulated in 7 mM Big CHAP (CALBIOCHEM®) were administered into the bladder via an intravesical catheter. The animals were sacrificed 48 hours later, the bladder fixed in 4% formalin/glutaraldehyde, opened longitudinally, and Xgal stained.

[5] = Solubility and dissolution behaviour; format: physicochemical
[6] = test system: bladder; test: Gene transfer activity of Syn3 in Big CHAP or Tween-80, β-galactosidase expression in bladder; format: in vivo, rat; details: for gene transfer activity / β-gal expression: 0.5 mg/ml in 7.8 mM Big CHAP
Protocol: (§1) Following removal of virus and flushing of the bladder, the animals were allowed to recover. After 48 hours the animals were sacrificed, their bladders fixed, and stained for β-gal expression. Following photographic recording, bladders were embedded in paraffin for sectioning and histological examination.

[7] = test system: bladder urothelium; test: Histological examination of Syn3 treated bladders (infiltrates); format: in vivo, rat; details: for inflammation / infiltration at lower concentration of Syn3: 0.25 mg/ml compared with 0.5 mg/ml, decreasing concentrations in Big CHAP or Tween 80
Protocol: as §1
Bladders from animals treated with Syn3-rAd (β-Gal) were prepared for histological examination to determine the levels of viral infection, as well as the degree of viral penetration into the bladder urothelium.

[8] = Stability of Syn3 in solution; format: physicochemical
Protocol: However, if left at room temperature at this high concentration (100 mg/ml), it will solidify within 24 hours.

[9] = test system: bladder; test: Gene transfer activity of water-soluble Syn3 analogs in vivo, whole organ Xgal staining; set-up: species or system rat; details: summary, Concentration 1 mg/ml
Protocol: A concentration of 1 mg/ml was chosen for initial testing of both compounds.
The solution of A-TMA was prepared by dissoluting 10 mg of A-TMA into 10 ml Dulbecco's PBS. Glycerol was added to provide a final concentration of 10 mg/ml. All solutions were sterile filtered prior to use (0.2 μm Acrodisc syring filter). The virus (BGCG 70AAB) was diluted 1:10 into either this A-TMA solution, or into Dulbecco's PBS-glycerol prior to administration.
Ten mg of A-HCl was dissoluted into this buffer and sterile filtered prior to use (0.2 μm Acrodisc suring filter). The virus (BGCG 70AAB) was diluted 1:10 into this solution prior to administration. For comparison, the virus diluted into this buffer without A-HCl was also tested.
Female HSD rats were anesthetized using isofluorane. The rats were transuretherally catheterized into the bladder using PE50 tubing lubricated with K-Y jelly. A tie-off was installed on the external urethra to prevent back leakage. Urine, if any, was removed and the bladder was flushed with 0.5 ml PBS and emptied. rAd was diluted to the desired concentration (1:10) and instilled for 45 minutes. The dosing material was removed, noting the return volume. The bladder was flushed with 0.5 ml PBS and emptied. The tie-off and catheter were removed, and the animals were allowed to recover in cages.
After 48 hours, the animals were sacrificed and their bladders inflation fixed with 0.5 ml fixative for 1 hour. The bladders were then rinsed overnight and whole organ Xgal staining was conducted.

With `CCO` [ethanol] as the compound, how does the “β-galactosidase expression of the transitional bladder epithelium (histologic evaluation)” value ([1]; ethanol added to the adenovirus formulation) read?
Its value is “increased β-galactosidase expression”.

What about the “β-galactosidase expression in the luminal epithelial surface” value ([1]; rAd-βgal 1.7×10^11 PN/mL diluted in 30% (v/v) ethanol, intravesical 45 min, 2 days after administration) of the same compound?
The value was “greatly enhanced”.

And the “ACNRB expression in bladder (RT-PCR)” value ([2]; ACNRB 4×10^10 PN/mL in 22% (v/v) ethanol or 3 mM Big CHAP versus VPBS, 48 hours)?
Its value is “enhanced expression”.

And the “ACNRB expression in bladder (RT-PCR)” value ([2]; ACNRB in 30% (v/v) ethanol compared to VPBS, 2 days)?
The value was “Increased ACNRB expression”.

What about the “macrophage infiltration into the bladder tissue / cystitis” value [3] of the same compound?
The value was “significant cystitis”.

For Triton X-100 [reference compound], which “gene transfer to the bladder epithelium (Table I)” value [4] is on record?
The value was “enhanced gene transfer dramatically”.

And the “macrophage infiltration into the bladder tissue / cystitis” value [3]?
Its value is “slight to mild”.

For `CC(CCC(=O)NCCCN(CCCNC(=O)C(O)C(O)C(OC1OC(CO)C(O)C(O)C1O)C(O)CO)C(=O)CCC(C)C1CCC2C3C(O)CC4CC(O)CCC4(C)C3CC(O)C12C)C1CCC2C3C(O)CC4CC(O)CCC4(C)C3CC(O)C12C` (stereo not drawn) [Syn3], which “dissolution in Tween 80” value ([5]; 1 mg/ml in 0.1% Tween 80) is on record?
Its value is “clear solution; also recorded: readily solubilized”.

And the “behaviour on dissolution in water” value ([5]; 1 mg/ml in water)?
The value was “appeared to form vesicles”.

What about the “behaviour on dissolution in water” value ([5]; 10 mg/ml in water) of the same compound?
Its value is “formed a gel”.

What about the “amount of Syn3 that dissolutes” value ([5]; into 15 mM Big CHAP) of the same compound?
Its value is “Up to 5 mg/ml”.

What about the “time to completely dissolute” value ([5]; into 10% Tween-80) of the same compound?
The value was “several hours”.

What about the gene transfer activity ([6]; 0.25 mg/ml in 3.9 mM Big CHAP) of the same compound?
Its gene transfer activity is “Very high levels of gene transfer”.

What about the gene transfer activity ([6]; 0.25 mg/ml in 3.9 mM Big CHAP, listed as I3A) of the same compound?
Its gene transfer activity is “high levels of gene transfer activity”.

What about the “gene transfer activity / β-gal expression” value [6] of the same compound?
The value was “greatly enhance gene transfer and β-gal expression; also recorded: very high levels of gene transfer activity; also recorded: highest levels of β-galactosidase expression; also recorded: extremely high”.

And the “gene transfer activity / β-gal expression” value ([6]; listed as I3A)?
The value was “High levels of gene transfer”.

What about the gene transfer activity ([6]; 0.5 mg/ml in 0.05% Tween-80) of the same compound?
The gene transfer activity was “more regions lacking β-galactosidase expression; also recorded: slightly reduced”.

And the gene transfer activity ([6]; 1 mg/ml in 0.1% Tween 80)?
Its gene transfer activity is “found to enhance gene transfer; also recorded: can enhance gene transfer; also recorded: very high levels of gene transfer; also recorded: consistently high levels of gene transfer; also recorded: effective in enhancing gene transfer; also recorded: Approximately equal levels of gene transfer”.

And the gene transfer activity ([6]; 1 mg/ml in 0.1% Tween 80, listed as I3A)?
Its gene transfer activity is “very high levels of gene transfer; also recorded: High levels of β-galactosidase activity”.

And the gene transfer ([6]; 1 mg/ml in 0.4% Tween-80)?
Its gene transfer is “almost no gene transfer”.

What about the “gene transfer, 0.5 mg/ml in 7.8 mM Big CHAP compared with 1 mg/ml in 0.1% Tween-80” value ([6]; rat, in vivo) of the same compound?
Its value is “approximately equal levels of gene transfer enhancement; also recorded: comparable”.

And the “inflammation / infiltration at lower concentration of Syn3” value [7]?
The value was “proportionally lower infiltration”.

What about the “inflammation / infiltration at lower concentration of Syn3” value ([7]; listed as I3A) of the same compound?
Its value is “less inflammation”.

And the “recruitment of infiltrates to the bladder” value ([7]; 0.5 mg/ml in 7.8 mM Big CHAP with rAd)?
Its value is “massive recruitment of infiltrates to the bladder”.

And the infiltration ([7]; Syn3 administered alone (no virus))?
Its infiltration is “a significant amount of infiltration; also recorded: significant induction of infiltrates”.

What about the “β-Gal expression on reducing the concentration of Syn3 (histology)” value ([7]; in either detergent) of the same compound?
Its value is “concomitant reduction in β-Gal expression”.

And the “period over which gene transfer activity is retained” value ([8]; 0.25 mg/ml or 0.5 mg/ml in Big CHAP, room temperature)?
Its value is “at least 30 days”.

And the period of stability ([8]; 1 mg/ml in 0.1% Tween-80, longest period tested)?
The period of stability was “at least 30 days”.

And the period of stability ([8]; 100 mg/ml in 10% Tween-80, 4° C.)?
The period of stability was “at least one week”.

And the time to solidify ([8]; 100 mg/ml in 10% Tween-80, room temperature)?
Its time to solidify is ≤ 24 h.

And the “stability (in words)” value ([8]; dissoluted into Big CHAP detergent)?
Its value is “very stable”.

And the gene transfer activity [9]?
The gene transfer activity was “++++”.
